Measured values from publication PMC9150124, “Design of a Potent, Selective, and Brain-Penetrant Inhibitor of Wnt-Deactivating Enzyme Notum by Optimization of a Crystallographic Fragment Hit” (Journal of Medicinal Chemistry, 2022).

Key:
Assay in all cases: SelectScreen kinase profiling, SSBK LanthaScreen Binding SP Technology
[1] = biological target: kinase named in conditions (Homo sapiens, UniProt O94768); conditions: STK17B (DRAK2), 10 μM
[2] = biological target: kinase named in conditions (Homo sapiens, UniProt P00519, Q252H); conditions: ABL1 Q252H, 10 μM
[3] = biological target: kinase named in conditions (Homo sapiens, UniProt P07949, V804M); conditions: RET V804M, 10 μM
[4] = biological target: kinase named in conditions (Homo sapiens, UniProt P11362, V561M); conditions: FGFR1 V561M, 10 μM
[5] = biological target: kinase named in conditions (Homo sapiens, UniProt P19525); conditions: EIF2AK2 (PKR), 10 μM
[6] = biological target: kinase named in conditions (Homo sapiens, UniProt P22607, K650M); conditions: FGFR3 K650M, 10 μM
[7] = biological target: kinase named in conditions (Homo sapiens, UniProt P30291); conditions: WEE1, 10 μM
[8] = biological target: kinase named in conditions (Homo sapiens, UniProt P36507); conditions: MAP2K2 (MEK2), 10 μM
[9] = biological target: kinase named in conditions (Homo sapiens, UniProt P42680); conditions: TEC, 10 μM
[10] = biological target: kinase named in conditions (Homo sapiens, UniProt P52564); conditions: MAP2K6 (MKK6), 10 μM
[11] = biological target: kinase named in conditions (Homo sapiens, UniProt P53667); conditions: LIMK1, 10 μM
[12] = biological target: kinase named in conditions (Homo sapiens, UniProt P57059); conditions: SIK1, 10 μM
[13] = biological target: kinase named in conditions (Homo sapiens, UniProt Q00535); conditions: CDK5 (Inactive), 10 μM
[14] = biological target: kinase named in conditions (Homo sapiens, UniProt Q00536); conditions: CDK16 (PCTK1)/cyclin Y, 10 μM
[15] = biological target: kinase named in conditions (Homo sapiens, UniProt Q02750); conditions: MAP2K1 (MEK1), 10 μM
[16] = biological target: kinase named in conditions (Homo sapiens, UniProt Q02763, R849W); conditions: TEK (TIE2) R849W, 10 μM
[17] = biological target: kinase named in conditions (Homo sapiens, UniProt Q08345); conditions: DDR1, 10 μM
[18] = biological target: kinase named in conditions (Homo sapiens, UniProt Q13131); conditions: 10 μM
[19] = biological target: kinase named in conditions (Homo sapiens, UniProt Q15835); conditions: GRK1, 10 μM
[20] = biological target: kinase named in conditions (Homo sapiens, UniProt Q16584); conditions: MAP3K11 (MLK3), 10 μM
[21] = biological target: kinase named in conditions (Homo sapiens, UniProt Q16832); conditions: DDR2, 10 μM
[22] = biological target: kinase named in conditions (Homo sapiens, UniProt Q16832, T654M); conditions: DDR2 T654M, 10 μM
[23] = biological target: kinase named in conditions (Homo sapiens, UniProt Q7L7X3); conditions: TAOK1, 10 μM
[24] = biological target: kinase named in conditions (Homo sapiens, UniProt Q86SG6); conditions: NEK8, 10 μM
[25] = biological target: kinase named in conditions (Homo sapiens, UniProt Q86UX6); conditions: STK32C (YANK3), 10 μM
[26] = biological target: kinase named in conditions (Homo sapiens, UniProt Q99759); conditions: MAP3K3 (MEKK3), 10 μM
[27] = biological target: kinase named in conditions (Homo sapiens, UniProt Q9BYP7); conditions: WNK3, 10 μM
[28] = biological target: kinase named in conditions (Homo sapiens, UniProt Q9HAZ1); conditions: CLK4, 10 μM
[29] = biological target: kinase named in conditions (Homo sapiens, UniProt Q9NYL2); conditions: ZAK, 10 μM
[30] = biological target: kinase named in conditions (Homo sapiens, UniProt Q9UIK4); conditions: DAPK2, 10 μM
[31] = biological target: kinase named in conditions (Homo sapiens, UniProt Q9UKE5); conditions: TNIK, 10 μM
[32] = biological target: kinase named in conditions (Homo sapiens, UniProt Q9UM73, F1174L); conditions: ALK F1174L, 10 μM
[33] = biological target: kinase named in conditions (Homo sapiens, UniProt Q9Y3S1); conditions: WNK2, 10 μM
[34] = biological target: kinase named in conditions (Homo sapiens, UniProt Q9Y616); conditions: IRAK3, 10 μM

`FC(F)(F)c1c(Cl)ccc(-n2ccnn2)c1Cl` [8l, 1-(2,4-Dichloro-3-(trifluoromethyl)phenyl)-1H-1,2,3-triazole] gave an inhibition at 10 µM [1] of 14%, an inhibition at 10 µM [2] of 10% and an inhibition at 10 µM [3] of 8%. The inhibition at 10 µM [4] was 4%, the inhibition at 10 µM [5] was 6% and the inhibition at 10 µM [6] was 2%. The inhibition at 10 µM [7] was 9%, the inhibition at 10 µM [8] was 5% and the inhibition at 10 µM [9] was 0%. For the same compound, the inhibition at 10 µM [10] was 2%, the inhibition at 10 µM [11] was 6% and the inhibition at 10 µM [12] was -3%. The inhibition at 10 µM [13] was 1%, the inhibition at 10 µM [14] was 8% and the inhibition at 10 µM [15] was 26%. For the same compound, the inhibition at 10 µM [16] was 19%, the inhibition at 10 µM [17] was 0% and the inhibition at 10 µM ([18]; AMPK (A1/B1/G2)) was -13%. The inhibition at 10 µM ([18]; AMPK (A1/B1/G3)) was -4%, the inhibition at 10 µM ([18]; AMPK (A1/B2/G1)) was 6% and the inhibition at 10 µM [19] was 3%. It also gave an inhibition at 10 µM [20] of 3%, an inhibition at 10 µM [21] of -3% and an inhibition at 10 µM [22] of -9%. For the same compound, the inhibition at 10 µM [23] was 0%, the inhibition at 10 µM [24] was 2% and the inhibition at 10 µM [25] was 8%. It also gave an inhibition at 10 µM [26] of -14%, an inhibition at 10 µM [27] of -10% and an inhibition at 10 µM [28] of 3%. For the same compound, the inhibition at 10 µM [29] was 3%, the inhibition at 10 µM [30] was 23% and the inhibition at 10 µM [31] was 0%. The inhibition at 10 µM [32] was 1%, the inhibition at 10 µM [33] was 2% and the inhibition at 10 µM [34] was 15%.
